Laboratory results: patent publication US20240133897A1, “COMPOSITIONS AND METHODS FOR IDENTIFYING AND MODULATING THROMBOTIC CONDITIONS IN A CANCER PATIENT” (Beth Israel Deaconess Medical Center, Inc., priority 2019, published 2024)

Columns and labels:
[1] = tested on: HPAF-II cells; experiment: Flow cytometry of TF-bearing extracellular vesicles from HPAF-II cells after UPR induction; format: cell-based; conditions: for increase in the generation of TF-bearing EVs: HPAF-II cells following UPR induction, flow cytometry
From the text: (§1) The unfolded protein response (UPR) is associated with malignant transformation in pancreatic cancer, but whether or not activation of the UPR is linked to cancer thrombosis has not previously been evaluated. To determine whether UPR signaling functions in the prothrombotic transformation of pancreatic cancer, pancreatic adenocarcinoma cells (HPAF-II cells) were exposed to three UPR inducers (tunicamycin, triptolide and thapsigargin) that act via independent mechanisms. […] Release of thrombogenic material was inhibited by siRNA-mediated knockdown of UPR components including IRE1α (80%±3% decrease) or PERK (60%±10% decrease). […] Apoptosis as detected by caspase-3 cleavage was not observed under these conditions.

[2] = tested on: HPAF-II cells; experiment: Thrombin generation by material released from HPAF-II cells after UPR induction; format: cell-based; conditions: for increase in thrombin generation in pelleted material: pancreatic adenocarcinoma HPAF-II cells exposed to UPR inducers, supernatant pelleted material; for decrease in thrombin generation (release of thrombogenic material): HPAF-II cells, UPR induced, chemical inhibition or siRNA knockdown of UPR components
From the text: as §1

| Molecule | increase in the generation of TF-bearing EVs [1] [fold] | increase in thrombin generation in pelleted material [2] [fold] | inhibition of UPR-induced generation of TF-bearing EVs ([1]; HPAF-II cells, UPR induced) | decrease in thrombin generation (release of thrombogenic material) [2] |
| --- | --- | --- | --- | --- |
| C/C=C(/C)C(=O)O[C@H]1C(C)=C2[C@H]([C@@H]1OC(=O)CCCCCCC)[C@@](C)(OC(C)=O)C[C@H](OC(=O)CCC)[C@@]1(O)[C@H]2OC(=O)[C@@]1(C)O [thapsigargin] | 3 | 3 | – | – |
| C[C@H]1CCC/C=C/[C@@H]2C[C@H](O)C[C@H]2[C@H](O)/C=C/C(=O)O1 [Brefeldin A] | – | – | inhibited | – |
| CC(C)[C@]12O[C@H]1[C@@H]1O[C@]13[C@]1(O[C@H]1C[C@H]1C4=C(CC[C@@]13C)C(=O)OC4)[C@@H]2O [triptolide] | 3 | 3 | – | – |
| tunicamycin | 3 | 3 | – | – |
| CN1CCN(C(=O)c2ccc(-c3ccc4c(C=O)c(O)ccc4c3)s2)CC1 [MKC-3946] | – | – | – | 70%±10% |
| Cn1cc(-c2ccc3c(c2)CCN3C(=O)Cc2cccc(C(F)(F)F)c2)c2c(N)ncnc21 [GSK2606414] | – | – | – | 80%±5% |
